{
  "source": "patent US20220034868A1",
  "about": "“CARDIOTOXICITY ASSESSMENT METHOD” (ZEON CORPORATION, priority 2018, published 2022)",
  "system": "iCell Cardiomyocytes^2",
  "test": "Cardiotoxicity assessment: cell-secreted BNP before and after drug addition (Human BNP ELISA Kit), 1060R 96-well plate",
  "assay_type": "cell-based",
  "settings": "Example 1; 1060R 96-well plate (surface free energy 34 mN/m), fibronectin coated; final doxorubicin 10^-6 M to 10^-14 M; 16 hours at 37° C.; n=3; FIG. 1",
  "description": "As a culture container a 96-well plate with 96 cylindrical wells each having a bottom area of 0.32 cm^2 was obtained by injection molding of ZEONOR® 1060R (ZEONOR is a registered trademark in Japan, other countries, or both) (ZEON Corporation, hydrogenated norbornene ring-opened polymer, hereinafter simply “1060R”) as an alicyclic structure-containing polymer. The culture container was sterilized with ethylene oxide gas (hereinafter, this culture container is referred to as “1060R 96-well plate”). The surface free energy at the inner bottom surface (cell-contacting surface, or culture surface) of each well of the 1060R 96-well plate was 34 mN/m. The surface free energy was measured using surface energy evaluation inks (Arcotest GmbH).\nTo each well of the […] 96-well plate was added 200 μL of 10 μg/mL human fibronectin (Corning Incorporated, product number: 356008) solution in sterile water and incubated at 37° C. for 2 hours to coat the inner bottom surface of each well with human fibronectin. Human fibronectin solution was removed from each well. […]\nSupernatant samples before and after doxorubicin addition were measured for BNP level using Human BNP ELISA Kit (RayBiotech, product number: ELH-BNP).",
  "data": [
    {"molecule": "COc1cccc2c1C(=O)c1c(O)c3c(c(O)c1C2=O)C[C@@](O)(C(=O)CO)C[C@@H]3O[C@H]1C[C@H](N)[C@H](O)[C@H](C)O1", "note": "[doxorubicin]", "values": [
      {"measurement": "cell-secreted BNP concentration difference before and after addition of doxorubicin", "result": "BNP concentration difference increases with increasing doxorubicin concentration"}
    ]}
  ]
}
